{"source": "patent US12128028B2", "about": "“Heterocyclic sulfonamide derivatives and pharmaceutical uses thereof” (METRION BIOSCIENCES LIMITED, priority 2018, dated 2024)"}
{"target": "human Kv1.3 (Homo sapiens (Human), UniProt P22001)", "sequence (P22001 whole entry)": "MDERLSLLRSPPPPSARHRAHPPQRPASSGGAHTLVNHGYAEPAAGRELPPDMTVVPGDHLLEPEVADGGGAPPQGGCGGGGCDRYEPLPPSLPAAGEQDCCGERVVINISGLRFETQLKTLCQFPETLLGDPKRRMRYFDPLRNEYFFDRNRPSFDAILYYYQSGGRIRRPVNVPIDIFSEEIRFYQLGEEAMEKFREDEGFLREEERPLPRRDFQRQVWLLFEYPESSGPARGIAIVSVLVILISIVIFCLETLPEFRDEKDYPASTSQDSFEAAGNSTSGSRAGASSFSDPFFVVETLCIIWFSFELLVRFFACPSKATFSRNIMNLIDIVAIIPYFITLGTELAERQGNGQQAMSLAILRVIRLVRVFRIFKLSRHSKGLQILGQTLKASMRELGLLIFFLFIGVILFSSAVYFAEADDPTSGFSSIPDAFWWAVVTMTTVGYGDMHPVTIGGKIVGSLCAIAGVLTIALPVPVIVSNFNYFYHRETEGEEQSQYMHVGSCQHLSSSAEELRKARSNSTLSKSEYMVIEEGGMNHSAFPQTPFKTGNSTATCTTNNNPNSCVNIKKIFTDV", "assay": "Kv1.3 potency evaluation, automated patch clamp electrophysiology (QPatch HT) in CHO-Kv1.3 cells", "format": "cell-based", "settings": "whole-cell QPatch HT, % inhibition of charge, step to +30 mV, four concentrations, N≥3 cells, read-out: hKv1.3 IC50", "how_it_was_run": "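Automated whole-cell patch clamp in CHO cells stably expressing human Kv1.3; steps from −80 to +30 mV (500 ms) at 0.067 Hz. Four cumulative concentrations after vehicle (0.1-0.3% DMSO); charge inhibition vs vehicle fitted by four-parameter logistic for IC50, N≥3 cells.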", "units": {"IC50": "nM"}}
{"smiles": "CC(C)CC1(C(=O)NCC2CCC2)CN=C(C23CC(N(Cc4ccc(C(F)(F)F)cc4)S(=O)(=O)c4ccc(F)cc4)(C2)C3)N1", "note": "(stereo not shown) [Example 284]", "IC50": 787}
{"smiles": "CC1(C)N=C(C23CC(N(Cc4ccc(Cl)cc4)S(=O)(=O)c4cc(C(F)(F)F)ccc4O)(C2)C3)N[C@H]1C(=O)NCCC(F)(F)F", "note": "(mixture of isomers) [Example 286]", "IC50": 859}
{"smiles": "CC1(C)N=C(C23CC(N(Cc4ccc(Cl)c(F)c4)S(=O)(=O)c4ccccc4)(C2)C3)N[C@H]1C(=O)N1CC2CC2C1", "note": "(mixture of isomers) [Example 81]", "IC50": 61}
{"smiles": "CC1(C)N=C(C23CC(N(Cc4ccc(Cl)cc4)S(=O)(=O)c4ccccc4)(C2)C3)N[C@H]1C(=O)NC[C@H]1CC1(F)F", "note": "(mixture of isomers) [Example 39]", "IC50": 45}
{"smiles": "C[C@H]1CC(F)(F)CN1C(=O)[C@@H]1NC(C23CC(N(Cc4ccc(Cl)c(F)c4)S(=O)(=O)c4ccccc4)(C2)C3)=NC1(C)C", "note": "(mixture of isomers) [Example 44]", "IC50": 46}
{"smiles": "CC1(C)N=C(C23CC(N(Cc4ccc(Cl)c(Cl)c4)S(=O)(=O)CCC(F)F)(C2)C3)N[C@H]1C(=O)NCCC(F)(F)F", "note": "(mixture of isomers) [Example 165]", "IC50": 99}
{"smiles": "CC1(C)N=C(C23CC(N(Cc4ccc(Cl)cc4)S(=O)(=O)c4ccccc4)(C2)C3)N[C@H]1C(=O)NCC1CC1(F)F", "note": "(mixture of isomers) [Example 51]", "IC50": 48}
{"smiles": "C[C@]1(C(=O)NC2CCC2)CN=C(C23CC(N(Cc4ccc(C(F)(F)F)cc4)S(=O)(=O)c4ccc(F)cc4)(C2)C3)N1", "note": "(mixture of isomers) [Example 199]", "IC50": 129}
{"smiles": "CC1(C)N=C(C23CC(N(Cc4ccc(Cl)cc4)S(=O)(=O)N4CCCC4)(C2)C3)N[C@H]1C(=O)NCCC(F)(F)F", "note": "(mixture of isomers) [Example 43]", "IC50": 46}
{"smiles": "CC1(C)N=C(C23CC(N(Cc4ccc(C(F)(F)F)cc4)S(=O)(=O)c4ccc(F)cc4)(C2)C3)NC1C(=O)NCC1(C#N)CCC1", "note": "(stereo not shown) [Example 164]", "IC50": 99}
{"smiles": "CC1(C)N=C(C23CC(N(Cc4ccc(C(F)(F)F)cc4)S(=O)(=O)c4ccc(F)cc4)(C2)C3)NC1C(=O)NCC1CC1(F)F", "note": "(stereo not shown) [Example 161]", "IC50": 98}
{"smiles": "CC1(C)N=C(C23CC(N(Cc4ccc(C(F)(F)F)cc4)S(=O)(=O)c4ccccc4)(C2)C3)N[C@H]1C(=O)NCCC(F)(F)F", "note": "(mixture of isomers) [Example 138]", "IC50": 84}
{"smiles": "CC1(C)N=C(C23CC(N(Cc4ccc(Cl)c(F)c4)S(=O)(=O)c4ccccc4)(C2)C3)N[C@H]1C(=O)NCCC(F)F", "note": "(mixture of isomers) [Example 79]", "IC50": 60}
{"smiles": "CC1(C)N=C(C23CC(N(Cc4cccc(F)c4)S(=O)(=O)c4ccccc4)(C2)C3)N[C@H]1C(=O)NCCC(F)(F)F", "note": "(mixture of isomers) [Example 40]", "IC50": 46}
{"smiles": "CC1(C)N=C(C23CC(N(Cc4ccc(Cl)c(F)c4)S(=O)(=O)c4ccccc4)(C2)C3)N[C@H]1C(=O)NCC(F)(F)C(F)(F)F", "note": "(mixture of isomers) [Example 126]", "IC50": 76}
{"smiles": "CC1(C)N=C(C23CC(N(Cc4ccc(Cl)cc4)S(=O)(=O)C4CCCC4)(C2)C3)N[C@H]1C(=O)NCCC(F)(F)F", "note": "(mixture of isomers) [Example 121]", "IC50": 75}
{"smiles": "CC1(C)N=C(C23CC(N(Cc4ccc(Cl)c(F)c4)S(=O)(=O)c4ccccc4)(C2)C3)N[C@H]1C(=O)NCC1(C(F)(F)F)CC1", "note": "(mixture of isomers) [Example 26]", "IC50": 54}
{"smiles": "CC1(C)N=C(C23CC(N(Cc4ccc(Cl)cc4)S(=O)(=O)c4ccccn4)(C2)C3)N[C@H]1C(=O)NCCC(F)(F)F", "note": "(mixture of isomers) [Example 48]", "IC50": 48}
{"smiles": "CC1(C)N=C(C23CC(N(Cc4ccc(C(F)(F)F)c(Cl)c4)S(=O)(=O)c4ccccc4)(C2)C3)N[C@H]1C(=O)NCCC(F)(F)F", "note": "(mixture of isomers) [Example 221]", "IC50": 169}
{"smiles": "CC1(C)N=C(C23CC(N(Cc4ccc(Cl)cc4)S(=O)(=O)C(C)(C)C)(C2)C3)N[C@H]1C(=O)NCCC(F)(F)F", "note": "(mixture of isomers) [Example 287]", "IC50": 976}
{"smiles": "CC(C)NC(=O)[C@@]1(C)CN=C(C23CC(N(Cc4ccc(C(F)(F)F)cc4)S(=O)(=O)c4ccc(F)cc4)(C2)C3)N1", "note": "(mixture of isomers) [Example 250]", "IC50": 286}
{"smiles": "CC(C)NC(=O)[C@@]1(C)CN=C(C23CC(N(Cc4ccc(C(F)(F)F)cc4)S(=O)(=O)c4ccc(F)cc4)(C2)C3)N1C", "note": "(mixture of isomers) [Example 213]", "IC50": 152}
{"smiles": "CC1(C)N=C(C23CC(N(Cc4ccc(Cl)cc4)S(=O)(=O)c4ccccc4Cl)(C2)C3)N[C@H]1C(=O)NCCC(F)(F)F", "note": "(mixture of isomers) [Example 107]", "IC50": 71}
{"smiles": "CN(CC(F)(F)C(F)(F)F)C(=O)[C@@H]1NC(C23CC(N(Cc4ccc(Cl)c(Cl)c4)S(=O)(=O)c4ccccc4)(C2)C3)=NC1(C)C", "note": "(mixture of isomers) [Example 215]", "IC50": 159}
{"smiles": "CC1(C)N=C(C23CC(N(Cc4ccc(Cl)c(F)c4)S(=O)(=O)c4ccccc4)(C2)C3)N[C@H]1C(=O)NCC1CC(F)(F)C1", "note": "(mixture of isomers) [Example 63]", "IC50": 52}
{"smiles": "CC(C)(F)CNC(=O)[C@@H]1NC(C23CC(N(Cc4ccc(Cl)c(Cl)c4)S(=O)(=O)c4ccccc4)(C2)C3)=NC1(C)C", "note": "(mixture of isomers) [Example 28]", "IC50": 40}
{"smiles": "CC1(C)N=C(C23CC(N(Cc4ccc(Cl)cc4)S(=O)(=O)c4ccccc4)(C2)C3)N[C@H]1C(=O)NC1CC(C(F)F)C1", "note": "(mixture of isomers) [Example 45]", "IC50": 46}
{"smiles": "C[C@]1(C(=O)NCC2CCCCC2)CN=C(C23CC(N(Cc4ccc(C(F)(F)F)cc4)S(=O)(=O)c4ccc(F)cc4)(C2)C3)N1", "note": "(mixture of isomers) [Example 290]", "IC50": 1060}
{"smiles": "CC1(C)N=C(C23CC(N(Cc4ccc(Cl)c(Cl)c4)S(=O)(=O)CCC(F)F)(C2)C3)N[C@H]1C(=O)NC1CC(C(F)F)C1", "note": "(mixture of isomers) [Example 204]", "IC50": 135}
{"smiles": "CC(C)NC(=O)[C@]1(C)CN=C(C23CC(N(Cc4ccc(C(F)(F)F)cc4)S(=O)(=O)c4ccc(F)cc4)(C2)C3)N1", "note": "(mixture of isomers) [Example 196]", "IC50": 125}
{"smiles": "CC1(C)N=C(C23CC(N(Cc4ccc(Cl)c(F)c4)S(=O)(=O)c4ccccc4)(C2)C3)N[C@H]1C(=O)N1CCC(C(F)(F)F)CC1", "note": "(mixture of isomers) [Example 188]", "IC50": 112}
{"smiles": "CC(C)(C)CNC(=O)[C@@H]1NC(C23CC(N(Cc4ccc(Cl)c(F)c4)S(=O)(=O)c4ccccc4)(C2)C3)=NC1(C)C", "note": "(mixture of isomers) [Example 53]", "IC50": 49}
{"smiles": "CC1(C)N=C(C23CC(N(Cc4ccc(Cl)cc4)S(=O)(=O)c4ccc[nH]c4=O)(C2)C3)N[C@H]1C(=O)NCCC(F)(F)F", "note": "(mixture of isomers) [Example 295]", "IC50": 21400}
{"smiles": "CC1(C)N=C(C23CC(N(Cc4ccc(Cl)c(F)c4)S(=O)(=O)c4ccccc4)(C2)C3)N[C@H]1C(=O)N1CCC2(CCC2)C1", "note": "(mixture of isomers) [Example 109]", "IC50": 71}
{"smiles": "CC1(C)N=C(C23CC(N(Cc4ccc(Cl)cc4)S(=O)(=O)c4ccccc4)(C2)C3)N[C@H]1C(=O)NCC(F)(F)C(F)(F)F", "note": "(mixture of isomers) [Example 112]", "IC50": 72}
{"smiles": "C[C@]1(C(=O)N2CCCC2)CN=C(C23CC(N(Cc4ccc(C(F)(F)F)cc4)S(=O)(=O)c4ccc(F)cc4)(C2)C3)N1", "note": "(mixture of isomers) [Example 262]", "IC50": 395}
{"smiles": "CN(CC1CC(F)(F)C1)C(=O)[C@@H]1NC(C23CC(N(Cc4ccc(Cl)c(F)c4)S(=O)(=O)c4ccccc4)(C2)C3)=NC1(C)C", "note": "(mixture of isomers) [Example 133]", "IC50": 78}
{"smiles": "CCCS(=O)(=O)N(Cc1ccc(Cl)c(Cl)c1)C12CC(C3=NC(C)(C)[C@H](C(=O)N4CCC(C(F)(F)F)CC4)N3)(C1)C2", "note": "(mixture of isomers) [Example 130]", "IC50": 78}
{"smiles": "CCCS(=O)(=O)N(Cc1ccc(Cl)c(Cl)c1)C12CC(C3=NC(C)(C)[C@H](C(=O)N4C5CCC4CC(F)(F)C5)N3)(C1)C2", "note": "(mixture of isomers) [Example 190]", "IC50": 113}
{"smiles": "CC(F)(F)CCS(=O)(=O)N(Cc1ccc(Cl)c(F)c1)C12CC(C3=NC(C)(C)[C@H](C(=O)NCC(F)(F)C(F)(F)F)N3)(C1)C2", "note": "(mixture of isomers) [Example 222]", "IC50": 170}
{"smiles": "CC1(C)N=C(C23CC(N(Cc4ccc(Cl)cc4)S(=O)(=O)CCCF)(C2)C3)N[C@H]1C(=O)NCCC(F)(F)F", "note": "(mixture of isomers) [Example 92]", "IC50": 64}
{"smiles": "CC1(C)N=C(C23CC(N(Cc4ccc(Cl)c(F)c4)S(=O)(=O)c4ccccc4)(C2)C3)N[C@H]1C(=O)N1CC[C@H](C(F)(F)F)C1", "note": "(mixture of isomers) [Example 171]", "IC50": 102}
{"smiles": "CC1(C)N=C(C23CC(N(Cc4ccc(Cl)cc4)S(=O)(=O)N4CCC(F)(F)C4)(C2)C3)N[C@H]1C(=O)NCCC(F)(F)F", "note": "(mixture of isomers) [Example 212]", "IC50": 149}
{"smiles": "CC(F)(F)CCS(=O)(=O)N(Cc1ccc(Cl)c(Cl)c1)C12CC(C3=NC(C)(C)[C@H](C(=O)N4CCC(F)(F)CC4)N3)(C1)C2", "note": "(mixture of isomers) [Example 176]", "IC50": 104}
{"smiles": "CC(F)(F)CCS(=O)(=O)N(Cc1ccc(Cl)cc1)C12CC(C3=NC(C)(C)[C@H](C(=O)NCCC(F)(F)F)N3)(C1)C2", "note": "(mixture of isomers) [Example 93]", "IC50": 64}
{"smiles": "CC1(C)N=C(C23CC(N(Cc4ccc(Cl)c(F)c4)S(=O)(=O)c4ccccc4)(C2)C3)N[C@H]1C(=O)N1CCC2(CC2)C1", "note": "(mixture of isomers) [Example 57]", "IC50": 50}
{"smiles": "CC1(C)N=C(C23CC(N(Cc4ccc(Cl)c(F)c4)S(=O)(=O)c4ccccc4)(C2)C3)N[C@H]1C(=O)N1CC[C@@H](C(F)(F)F)C1", "note": "(mixture of isomers) [Example 125]", "IC50": 75}
{"smiles": "CC1(C)N=C(C23CC(N(Cc4ccc(C#N)cc4)S(=O)(=O)c4ccccc4)(C2)C3)N[C@H]1C(=O)NCCC(F)(F)F", "note": "(mixture of isomers) [Example 246]", "IC50": 258}
{"smiles": "CC(C)(C)CNC(=O)[C@@H]1NC(C23CC(N(Cc4ccc(Cl)c(Cl)c4)S(=O)(=O)CCC(C)(F)F)(C2)C3)=NC1(C)C", "note": "(mixture of isomers) [Example 203]", "IC50": 134}
